Laboratory results published in the supplement of paper PMC6045584.
± gives the standard deviation of the averaged measurements.

Experiments:
AFATINIB [1] = compound: T1, CN(C)C/C=C/C(=O)Nc1cc2c(Nc3ccc(F)c(Cl)c3)ncnc2cc1O[C@H]1CCOC1 [AFATINIB]; assay: area under dose-response curve of surviving fraction (unscaled, Aref=0) (surviving fraction x log10(nM)); higher = more resistant; details: exposure time: 5 days; dose range 0.5-1000 nM
In short: (§1)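 Surviving fractions were fitted by 3-parameter logistic regression in the drc R package to give dose-response survival curves. They came from tumour cell lines treated for five days with eight inhibitor concentrations from 0.5 to 1000 nM and read by CellTiter-Glo luminescence against DMSO-only wells. The area under the curve is the unscaled activity area. It was calculated over log10 dose with Aref = 0.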

SNX-5422 [2] = compound: T2, CC1(C)CC(=O)c2c(C(F)(F)F)nn(-c3ccc(C(N)=O)c(N[C@H]4CC[C@H](OC(=O)CN)CC4)c3)c2C1 [SNX-5422]; assay: as above; details: exposure time: 5 days; dose range 0.5-1000 nM
In short: as §1

[3] = compound: Cn1cc(C2=Nc3cc(NC(=O)C(N)C4CCCCC4)cc4c3C2=CNNC4=O)cn1; assay: as above; details: exposure time: 5 days; dose range 0.5-1000 nM
In short: as §1

TIOGUANINE = compound: Nc1nc2[nH]cnc2c(=S)[nH]1 [TIOGUANINE]; assay: as above; details: exposure time: 5 days; dose range 0.5-1000 nM
In short: as §1

BI-2536 = compound: CC[C@@H]1C(=O)N(C)c2cnc(Nc3ccc(C(=O)NC4CCN(C)CC4)cc3OC)nc2N1C1CCCC1 [BI-2536]; assay: as above; details: exposure time: 5 days; dose range 0.5-1000 nM
In short: as §1

AFATINIB [4] = compound: T1, AFATINIB; assay: surviving fraction relative to DMSO-only wells; higher = less growth inhibition; details: exposure time: 5 days
In short: (§2)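 Tumour cell lines in log phase were plated in 384-well plates at 250–500 cells per well, then, after 24 hours, exposed continuously for five days to inhibitors at 0.5, 1, 5, 10, 50, 100, 500 and 1000 nM. Viability came from CellTiter-Glo luminescence, and surviving fraction is that signal normalised to the median of DMSO-only wells. Plates were read after 10 minutes at room temperature, and each line, screened three times, was kept only when replicate Pearson r was >0.7 and median Z' was >0.3.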

SNX-5422 [5] = compound: T2, SNX-5422; assay: as above; details: exposure time: 5 days
In short: as §2

MDV3100 = compound: CNC(=O)c1ccc(N2C(=S)N(c3ccc(C#N)c(C(F)(F)F)c3)C(=O)C2(C)C)cc1F [MDV3100]; assay: as above; details: exposure time: 5 days
In short: as §2

SAPACITABINE = compound: CCCCCCCCCCCCCCCC(=O)Nc1ccn([C@@H]2O[C@H](CO)[C@@H](O)[C@@H]2C#N)c(=O)n1 [SAPACITABINE]; assay: as above; details: exposure time: 5 days
In short: as §2

For SG28 HEADNECK, the “area under dose-response curve” value (AFATINIB [1]) was 1.78, the “area under dose-response curve” value (SNX-5422 [2]) was 2.19 and the “area under dose-response curve” value [3] was 2.64. For the same test system, the “area under dose-response curve” value (TIOGUANINE) was 3.45, the “area under dose-response curve” value (BI-2536) was 2.69 and the surviving fraction (AFATINIB [4]; 0.5 nM) was 0.907 ± 0.056. It also gave a surviving fraction (AFATINIB [4]; 1 nM) of 0.828 ± 0.089, a surviving fraction (AFATINIB [4]; 5 nM) of 0.669 ± 0.083 and a surviving fraction (AFATINIB [4]; 10 nM) of 0.523 ± 0.056. The surviving fraction (AFATINIB [4]; 50 nM) was 0.441 ± 0.052, the surviving fraction (AFATINIB [4]; 100 nM) was 0.452 ± 0.057 and the surviving fraction (AFATINIB [4]; 500 nM) was 0.342 ± 0.029. It also gave a surviving fraction (AFATINIB [4]; 1000 nM) of 0.259 ± 0.035, a surviving fraction (SNX-5422 [5]; 0.5 nM) of 1.05 ± 0.11 and a surviving fraction (SNX-5422 [5]; 1 nM) of 1.12 ± 0.019. The surviving fraction (SNX-5422 [5]; 5 nM) was 1 ± 0.076, the surviving fraction (SNX-5422 [5]; 10 nM) was 1 ± 0.071 and the surviving fraction (SNX-5422 [5]; 50 nM) was 0.598 ± 0.042. The surviving fraction (SNX-5422 [5]; 100 nM) was 0.299 ± 0.023, the surviving fraction (SNX-5422 [5]; 500 nM) was 0.117 ± 0.019 and the surviving fraction (SNX-5422 [5]; 1000 nM) was 0.125 ± 0.015. The surviving fraction (MDV3100; 0.5 nM) was 1.19 ± 0.035, the surviving fraction (MDV3100; 1 nM) was 1.06 ± 0.0078 and the surviving fraction (MDV3100; 5 nM) was 1.02 ± 0.086. It also gave a surviving fraction (MDV3100; 10 nM) of 0.762 ± 0.034, a surviving fraction (MDV3100; 50 nM) of 0.949 ± 0.062 and a surviving fraction (MDV3100; 100 nM) of 1.01 ± 0.06. It also gave a surviving fraction (MDV3100; 500 nM) of 1.11 ± 0.067, a surviving fraction (MDV3100; 1000 nM) of 0.946 ± 0.13 and a surviving fraction (SAPACITABINE; 0.5 nM) of 0.756 ± 0.14. For the same test system, the surviving fraction (SAPACITABINE; 1 nM) was 0.629 ± 0.18, the surviving fraction (SAPACITABINE; 5 nM) was 0.721 ± 0.26 and the surviving fraction (SAPACITABINE; 10 nM) was 0.216 ± 0.099. The surviving fraction (SAPACITABINE; 50 nM) was 0.996 ± 0.12.
